Each block holds one compound with its values, some of them ahead of it. Active and inactive are the calls of the source. The rule behind the calls is not given here.
Assays:
RKO [1] = test: Antiproliferative activity against human RKO cells incubated for 48 hrs by MTS assay; assay type: functional, cell-based
HCT-116 [2] = test: Antiproliferative activity against human HCT-116 cells incubated for 48 hrs by MTS assay; assay type: functional, cell-based; settings: HCT-116, 48 h
RKO [3] = test: Inhibition of colony formation in human RKO cells by crystal violet staining based light microscopic analysis; assay type: functional, cell-based; settings: dose 1.25-5 µM
HCT-116 [4] = test: Inhibition of XRCC2 expression in human HCT-116 cells incubated for 48 hrs Western blot analysis; assay type: functional, cell-based; settings: dose 1.25-5 µM
RKO [5] = test: Inhibition of colony formation in human RKO cells assessed as reduction in colony formation at 5 uM by crystal violet staining based light microscopic analysis; assay type: functional
[6] = AUC (0 to t) in male Sprague-Dawley rat at 10 mg/kg, po measured upto 48 hrs by UHPLC-MS/MS analysis; assay type: ADME, organism-based; settings: in vivo
[7] = AUC (0 to infinity) in male Sprague-Dawley rat at 2 mg/kg, iv measured upto 8 hrs by UHPLC-MS/MS analysis; assay type: ADME, organism-based; settings: in vivo
[8] = Acute toxicity in BALB/c mouse assessed as change in spleen weight at 10 to 90 mg/kg, po measured for 7 days; assay type: organism-based; settings: in vivo, 168 h, dose 10-90 mg/kg, time 7 day
HCT-116 [9] = test: Inhibition of DNA replication in human HCT-116 cells assessed as reduction in EdU positive cells incubated for 48 hrs by EdU staining based fluorescence microscopic analysis; assay type: functional, cell-based; settings: dose 1.25-5 µM
[10] = AUC (0 to infinity) in male Sprague-Dawley rat at 10 mg/kg, po measured upto 48 hrs by UHPLC-MS/MS analysis; assay type: ADME, organism-based; settings: in vivo
HCT-116 [11] = test: Inhibition of colony formation in human HCT-116 cells by crystal violet staining based light microscopic analysis; assay type: functional, cell-based; settings: dose 1.25-5 µM
[12] = AUC (0 to t) in male Sprague-Dawley rat at 2 mg/kg, iv measured upto 8 hrs by UHPLC-MS/MS analysis; assay type: ADME, organism-based; settings: in vivo
[13] = Cmax in male Sprague-Dawley rat at 10 mg/kg, po measured upto 48 hrs by UHPLC-MS/MS analysis; assay type: ADME, organism-based; settings: in vivo
[14] = Toxicity in BALB/c mouse implanted with human HCT-116 cells assessed as morphological changes in tumor t at 10 to 40 mg/kg, ip administered for 2 weeks by H and E staining based analysis; assay type: organism-based; settings: in vivo, 336 h, dose 10-40 mg/kg
[15] = Oral bioavailability in male Sprague-Dawley rat at 10 mg/kg measured upto 48 hrs by UHPLC-MS/MS analysis; assay type: ADME, organism-based; settings: in vivo
[16] = Acute toxicity in BALB/c mouse assessed as change in creatine level at 10 to 90 mg/kg, po measured for 7 days; assay type: organism-based; settings: in vivo, 168 h, dose 10-90 mg/kg, time 7 day
[17] = Half life in male Sprague-Dawley rat at 10 mg/kg, po measured upto 48 hrs by UHPLC-MS/MS analysis; assay type: ADME, organism-based; settings: in vivo
[18] = Tmax in male Sprague-Dawley rat at 10 mg/kg, po measured upto 48 hrs by UHPLC-MS/MS analysis; assay type: ADME, organism-based; settings: in vivo
HCT-116 [19] = test: Inhibition of colony formation in human HCT-116 cells assessed as reduction in colony formation at 5 uM by crystal violet staining based light microscopic analysis; assay type: functional
HCT-116 [20] = test: Antitumor activity against human HCT-116 cells xenografted in BALB/c mouse assessed as increase in DNA damage by measuring gamma-H2AX level at 10 to 40 mg/kg, ip administered for 2 weeks by immunohistochemical analysis; assay type: functional, organism-based; settings: dose 10-40 mg/kg
[21] = Toxicity in BALB/c mouse implanted with human HCT-116 cells assessed as change in body weight at 10 to 40 mg/kg, ip administered for 2 weeks; assay type: organism-based; settings: in vivo, 336 h, dose 10-40 mg/kg
HCT-116 [22] = test: Antitumor activity against human HCT-116 cells xenografted in BALB/c mouse assessed as inhibition of BRCA1 expression at 10 to 40 mg/kg, ip administered for 2 weeks by Western blot analysis; assay type: functional, organism-based; settings: dose 10-40 mg/kg
[23] = Half life in male Sprague-Dawley rat at 2 mg/kg, iv measured upto 8 hrs by UHPLC-MS/MS analysis; assay type: ADME, organism-based; settings: in vivo
HCT-116 [24] = test: Inhibition of BRCA1 expression in human HCT-116 cells assessed as reduction in fluorescence intensity at 1.25 to 5 uM incubated for 48 hrs immunofluorescence analysis; assay type: functional, cell-based; settings: dose 1.25-5 µM
RKO [25] = test: Inhibition of DNA replication in human RKO cells assessed as reduction in EdU positive cells incubated for 48 hrs by EdU staining based fluorescence microscopic analysis; assay type: functional, cell-based; settings: dose 1.25-5 µM
HCT-116 [26] = test: Inhibition of BRCA1 expression in human HCT-116 cells incubated for 48 hrs Western blot analysis; assay type: functional, cell-based; settings: dose 1.25-5 µM
[27] = Bioavailability in male Sprague-Dawley rat […] by UHPLC-MS/MS analysis; assay type: ADME, organism-based; settings: in vivo
[28] = Acute toxicity in BALB/c mouse assessed as change in liver weight at 10 to 90 mg/kg, po measured for 7 days; assay type: organism-based; settings: in vivo, 168 h, dose 10-90 mg/kg, time 7 day
[29] = Tmax in male Sprague-Dawley rat at 2 mg/kg, iv measured upto 8 hrs by UHPLC-MS/MS analysis; assay type: ADME, organism-based; settings: in vivo
HCT-116 [30] = test: Antitumor activity against human HCT-116 cells xenografted in BALB/c mouse assessed as inhibition of tumor growth at 10 to 40 mg/kg, ip administered for 2 weeks; assay type: functional, organism-based; settings: dose 10-40 mg/kg
[31] = Acute toxicity in BALB/c mouse assessed as change in body weight at 10 to 90 mg/kg, po measured for 7 days; assay type: organism-based; settings: in vivo, 168 h, dose 10-90 mg/kg, time 7 day
[32] = Acute toxicity in BALB/c mouse assessed as change in ALT level at 10 to 90 mg/kg, po measured for 7 days; assay type: organism-based; settings: in vivo, 168 h, dose 10-90 mg/kg, time 7 day
[33] = Acute toxicity in BALB/c mouse assessed as change in lung weight at 10 to 90 mg/kg, po measured for 7 days; assay type: organism-based; settings: in vivo, 168 h, dose 10-90 mg/kg, time 7 day
[34] = Cmax in male Sprague-Dawley rat at 2 mg/kg, iv measured upto 8 hrs by UHPLC-MS/MS analysis; assay type: ADME, organism-based; settings: in vivo
[35] = Acute toxicity in BALB/c mouse assessed as change in heart weight at 10 to 90 mg/kg, po measured for 7 days; assay type: organism-based; settings: in vivo, 168 h, dose 10-90 mg/kg, time 7 day
HCT-116 [36] = test: Antitumor activity against human HCT-116 cells xenografted in BALB/c mouse assessed as inhibition of tumor proliferation at 10 to 40 mg/kg, ip administered for 2 weeks by Ki67 staining based immunohistochemical analysis; assay type: functional, organism-based; settings: dose 10-40 mg/kg
[37] = Acute toxicity in BALB/c mouse assessed as morphological change in liver at 10 to 90 mg/kg, po measured for 7 days by H and E staining based analysis; assay type: organism-based; settings: in vivo, 168 h, dose 10-90 mg/kg, time 7 day
HCT-116 [38] = test: Induction of DNA damage in human HCT-116 cells assessed as increase in 53BP1 foci positive cells at 1.25 to 5 uM incubated for 48 hrs by immunofluorescence staining based analysis; assay type: functional, cell-based; settings: dose 1.25-5 µM
[39] = Acute toxicity in BALB/c mouse assessed as change in kidney weight at 10 to 90 mg/kg, po measured for 7 days; assay type: organism-based; settings: in vivo, 168 h, dose 10-90 mg/kg, time 7 day
[40] = Acute toxicity in BALB/c mouse assessed as change in AST level at 10 to 90 mg/kg, po measured for 7 days; assay type: organism-based; settings: in vivo, 168 h, dose 10-90 mg/kg, time 7 day
HCT-116 [41] = test: Antitumor activity against human HCT-116 cells xenografted in BALB/c mouse assessed as inhibition of XRCC2 expression at 10 to 40 mg/kg, ip administered for 2 weeks by Western blot analysis; assay type: functional, organism-based; settings: dose 10-40 mg/kg
HCT-116 [42] = test: Induction of cell cycle arrest in human HCT-116 cells at 5 uM incubated for 2 to 48 hrs by PI staining based flow cytometry analysis; assay type: functional; settings: time 2-48 hrs
[43] = Acute toxicity in BALB/c mouse assessed as morphological change in kidney at 10 to 90 mg/kg, po measured for 7 days by H and E staining based analysis; assay type: organism-based; settings: in vivo, 168 h, dose 10-90 mg/kg, time 7 day

SMILES: COc1cc2c(c(O)c1C(=O)/C=C/c1ccccc1N1CCN(C)CC1)C=CC(C)(C)O2
inhibition (RKO [3]): Dose-dependent-effect
inhibition (HCT-116 [4]): Dose-dependent-effect
inhibition at 5 µM (RKO [5]): 2%
AUC(0-t) at 48 h [6]: 1270 µg·h/mL
AUC [7]: 1.61 µg·h/mL
Activity [8]: Non-toxic
inhibition (HCT-116 [9]): Dose-dependent-effect
AUC(0-inf) [10]: 3 µg·h/mL
inhibition (HCT-116 [11]): Dose-dependent-effect
AUC(0-t) at 8 h [12]: 866 µg·h/mL
Cmax [13]: 152 ng/mL
Activity [14]: Non-toxic
bioavailability [15]: 37.5%
Activity [16]: Non-toxic
half-life [17]: 69.3 h
Tmax [18]: 4 h
IC50 (RKO [1]): 4.01 µM
inhibition at 5 µM (HCT-116 [19]): 2%
Activity (HCT-116 [20]): Active
Activity [21]: Non-toxic
Activity (HCT-116 [22]): Active
t1/2 [23]: 0.82 h
inhibition (HCT-116 [24]): Active
inhibition (RKO [25]): Dose-dependent-effect
inhibition (HCT-116 [26]): Dose-dependent-effect
bioavailability [27]: 37.5%
Activity [28]: Non-toxic
Tmax [29]: 2.28 min
Activity (HCT-116 [30]): Active
Activity [31]: Non-toxic
Activity [32]: Non-toxic
Activity [33]: Non-toxic
Cmax [34]: 359 ng/mL
Activity [35]: Non-toxic
Activity (HCT-116 [36]): Active
Activity [37]: Non-toxic
Activity (HCT-116 [38]): Active
Activity [39]: Non-toxic
Activity [40]: Non-toxic
IC50 (HCT-116 [2]): 5.4 µM
Activity (HCT-116 [41]): Active
Activity (HCT-116 [42]): Active
Activity [43]: Non-toxic

SMILES: COc1cc2c(c(O)c1C(=O)/C=C/c1ccc(Br)cc1)C=CC(C)(C)O2
IC50 (RKO [1]): 157 µM
IC50 (HCT-116 [2]): 154 µM

SMILES: COc1cc2c(c(O)c1C(=O)/C=C/c1ccc(O)cc1)C=CC(C)(C)O2 [XANTHOHUMOL C]
IC50 (RKO [1]): 28.5 µM
IC50 (HCT-116 [2]): 25.9 µM

SMILES: COc1cc(/C=C/C(=O)c2c(OC)cc3c(c2O)C=CC(C)(C)O3)ccc1O
IC50 (RKO [1]): 17.6 µM
IC50 (HCT-116 [2]): 24.8 µM

SMILES: COc1ccc(/C=C/C(=O)c2c(OC)cc3c(c2O)C=CC(C)(C)O3)cc1O
IC50 (RKO [1]): 18.3 µM
IC50 (HCT-116 [2]): 25 µM

SMILES: COc1cccc(/C=C/C(=O)c2c(OC)cc3c(c2O)C=CC(C)(C)O3)c1OC
IC50 (RKO [1]): 13.9 µM
IC50 (HCT-116 [2]): 23.1 µM

More lines, in order of falling IC50 (HCT-116 [2]), values ahead:

IC50 (HCT-116 [2]): 189 µM
SMILES: COc1cc2c(c(O)c1C(=O)/C=C/c1cccc(OCc3ccccc3)c1)C=CC(C)(C)O2
IC50 (RKO [1]): 149 µM

IC50 (HCT-116 [2]): 163 µM
SMILES: COc1cc2c(c(O)c1C(=O)/C=C/c1ccc([N+](=O)[O-])cc1)C=CC(C)(C)O2
IC50 (RKO [1]): 133 µM

IC50 (HCT-116 [2]): 79.1 µM
SMILES: COc1cc2c(c(O)c1C(=O)/C=C/c1ccc(C(C)C)cc1)C=CC(C)(C)O2
IC50 (RKO [1]): 69.5 µM

Reference: ChEMBL document CHEMBL6078725, “Discovery of novel xanthohumol C derivatives regulating XRCC2 transcription and expression for the treatment of colorectal cancer” (Bioorg Med Chem, 2025)
